Here are results for 3 molecules from patent publication US5658906A, “Cysteine protease and serine protease inhibitors” (Cephalon, Inc., priority 1996, dated 1997).

The target in experiment [1] is T1, Calpain I (Homo sapiens, UniProt P07384).
T1 construct: Calpain I was purified from human red blood cells; from tissue; host or cells: human red blood cells (packed, outdated)
T1 sequence (P07384 1-714): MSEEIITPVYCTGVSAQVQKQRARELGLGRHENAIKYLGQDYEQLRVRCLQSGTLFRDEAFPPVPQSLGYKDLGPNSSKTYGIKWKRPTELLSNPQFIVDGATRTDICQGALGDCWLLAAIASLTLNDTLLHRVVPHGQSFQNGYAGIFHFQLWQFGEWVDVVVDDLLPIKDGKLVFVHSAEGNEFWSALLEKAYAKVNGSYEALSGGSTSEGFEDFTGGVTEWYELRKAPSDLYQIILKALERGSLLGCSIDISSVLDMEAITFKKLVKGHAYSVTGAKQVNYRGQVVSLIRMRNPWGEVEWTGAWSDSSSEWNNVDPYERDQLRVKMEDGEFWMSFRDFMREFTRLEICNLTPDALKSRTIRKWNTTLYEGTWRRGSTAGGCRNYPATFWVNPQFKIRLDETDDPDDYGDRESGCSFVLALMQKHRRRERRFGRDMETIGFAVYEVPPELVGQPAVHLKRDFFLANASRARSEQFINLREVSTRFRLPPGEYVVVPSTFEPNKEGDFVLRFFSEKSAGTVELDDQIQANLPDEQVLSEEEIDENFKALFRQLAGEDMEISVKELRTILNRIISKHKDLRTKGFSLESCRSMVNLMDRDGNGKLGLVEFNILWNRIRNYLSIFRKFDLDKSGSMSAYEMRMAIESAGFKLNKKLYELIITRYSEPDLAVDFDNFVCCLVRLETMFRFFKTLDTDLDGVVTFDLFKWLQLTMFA
T1 sequence (P04632 1-268 partner): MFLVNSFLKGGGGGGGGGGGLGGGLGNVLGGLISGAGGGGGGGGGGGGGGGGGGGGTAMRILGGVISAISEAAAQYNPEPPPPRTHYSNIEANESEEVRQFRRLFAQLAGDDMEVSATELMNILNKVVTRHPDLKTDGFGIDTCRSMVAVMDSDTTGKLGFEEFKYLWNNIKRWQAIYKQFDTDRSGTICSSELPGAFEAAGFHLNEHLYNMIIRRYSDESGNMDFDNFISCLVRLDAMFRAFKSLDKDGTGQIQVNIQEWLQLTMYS
Put plainly: Inhibition and rate of inactivation of calpain I (Succ-Leu-Tyr-MNA hydrolysis). It is filed as biochemical. The conditions noted are these: mean of three or more independent analyses, corrected for substrate, k2 = kapp(1+[S]/Km), read-out: k2 (second order rate constant of inactivation), A = Calpain I. How it is done:
To evaluate inhibitory activity of our compounds, stocks (40 times concentrated) of each compound to be tested were prepared in 100% anhydrous dimethyl sulfoxide (DMSO) and 5 μl of each inhibitor preparation was aliquoted into each of three wells of a 96 well plate. Calpain I was purified from human red blood cells using a modification of the method described by Lee, W. J. et al. (Biochem. Internatl. (1990)22(1): 163-171). Briefly, 3 units of packed outdated red blood cells were washed 3× by repeated centrifugation at 500 rpm for 10 minutes through 900 mls of 0.9% NaCl. Cells were lysed in 20 mM Tris/1 mM EDTA/1 mM EGTA/5 mM mercaptoethanol (Buffer A) and centrifuged for 1 hour at 12,000 rpm in a GSA rotor using a Sorval centrifuge. The supernatant was collected and applied to a DEAE-sepharose FF column equilibrated in Buffer A+25 mM NaCl. After washing the column in Buffer A+25 mM NaCl, the bound protein was eluted at 117 ml/hr with a 25 mM to 150 mM NaCl linear gradient in Buffer A collecting 200, 10 mL fractions. Two μl of every fifth fraction was applied to nitrocelluose using a dot blot apparatus and calpain containing fractions identified by Western analysis. For detection of calpain, nitrocellulose sheets were first blocked in 5% Blotto (5% Carnation instant milk/10 mM Tris/[…]150 mM NaCl) for 30 minutes, followed by incubation for 1 hour in antibody directed against Calpain I (rabbit anti-human calpain I polyclonal sera, 1:1000 dilution in 5% Blotto). After three 5 minutes washes in 10 mM Tris/150 mM NaCl/0.05% Tween 20 the nitrocellulose was incubated for 1 hour in secondary alkaline phosphatase conjugated antibody (Biorad Cat#170-6518 1:2000 in 5% Blotto). After three 5 minutes washes in 10 mM Tris/150 mM NaCl/0.05% Tween 20 and 1 wash in 10 mM Tris/150 mM NaCl the nitrocellulose was incubated for up to 2 hours in a colorimetric substrate solution (Biorad Alkaline Phosphatase Substrate conjugate kit, cat#170-6432). The reaction was stopped by washing in water. After fractions containing calpain, and those in between, were pooled, solid ammonium sulfate was added to achieve a 30% solution and the mixture stirred for 1 hour at 4° C. Following collection of the precipitate by centrifugation for 1 hour at 4° C. at 12K rpm in a GSA rotor, the supernatant was collected and brought to 45% in ammonium sulfate. After stirring for 1 hour at 4° C., centrifugation was repeated. The supernatant was discarded and the precipitate resuspended in approximately 7 mls and dialyzed overnight at 4° C. against Buffer A+50 mM NaCl. The sample was then applied to a S300 gel filtration column preequilibrated in Buffer A+50 mM NaCl, washed and eluted at a flow rate of 20 ml/hr, collecting 200, 4 ml fractions. The peak of calpain was determined by assaying aliquots of every fifth fraction for enzyme activity monitored by the hydrolysis of a fluorogenic dipeptide substrate as described below. The peak fractions were pooled and the enzyme preparation used to test compounds for inhibitory activity. As an alternate to enzyme isolated from tissue sources, recombinant human calpain I has also been used to monitor compounds for inhibitory activity.
The foregoing enzyme preparation was diluted into assay buffer (i.e., 50 mM Tris, 50 mM NaCl, 1 mM EDTA, 1 mM EGTA, and 5 mM β-mercaptoethanol, pH 7.5 including 0.2 mM Succ-Leu-Tyr-MNA) and 175 μl aliquoted into the same wells containing the independent inhibitor stocks as well as to positive control wells containing 5 μl DMSO, but no compound. To start the reaction, 20 μl of 50 mM CaCl2 in assay buffer was added to all wells of the plate, excepting three, which were used as background signal baseline controls. Substrate hydrolysis was monitored every 5 minutes for a total of 30 minutes using Flouroskan II (ex=340 nm; em=430 nm). Substrate hydrolysis in the absence of inhibitor was linear for up to 15 minutes. […]

For experiment [2], the system named is calpain I in Molt-4 cells (α-spectrin breakdown products). The experiment is described as follows: Inhibition of calpain activation in intact Molt-4 cells (calpain-generated spectrin breakdown products). The class given is cell-based. The conditions noted are these: Homo sapiens, calcium and ionophore (ionomycin), read-out: % Inhibition of BDPs (10 μM).
Experiment [3] addresses T2, Cathepsin B (Homo sapiens, UniProt P07858).
T2 construct: purchased Calbiochem 219364
Put plainly: Inhibition and rate of inactivation of cathepsin B (Cbz-Phe-Arg-AMC hydrolysis). The class given is biochemical. Conditions: pH 6.0, 0.1 mM substrate, read-out: k2 (second order rate constant of inactivation), C = Cathepsin B. As to the method:
Additionally, the order of reagents added to the plate was altered because both enzymes are constitutively active. Following inhibitor addition to the plates appropriate 2× concentrated stock dilutions of the enzyme preparations were made in assay buffer and 100 ul added to each well. The assay was initiated by addition of 100 ul of 2× concentrated stock dilution of substrate in assay buffer. Substrate hydrolysis was monitored using a Fluroskan II (ex=390 nm; em=460 nm).
Inhibition of enzyme activity was calculated as the percent decrease in the rate of substrate hydrolysis in the presence of inhibitor (.upsilon.i) relative to the rate in its absence (.upsilon.o). Comparison between .upsilon.o and .upsilon.i was made within the linear range for substrate hydrolysis. For screening, compounds were tested at 10 μM. Compounds having ≥50% inhibition at 10 μM were considered active. Apparent second order rate constants were determined from analysis of reaction progress curves under pseudo-first order conditions. Each determination represents the mean of three or more independent single cuvette analyses continually monitored via a Perkin-Elmer LS50B spectrofluorimeter. The rate of inhibition of hydrolysis was obtained by fitting the curve to the exponential equation (1):
y=Ae^-k.spsb.obs·t +B (1)
where y (Pt) is the product formed at time t. A and B are constants. A, the amplitude of the reaction, is given by [Po -P.varies. ] and B (=P.varies.) is the maximal product formed when the reaction is […]. This was corrected for the presence of equation (2): […]

Experiment [4] addresses T3, α-chymotrypsin (Bos taurus, UniProt P00766).
T3 construct: purchased Sigma Chem. Co. C-3142
The experiment is described as follows: Inhibition of the serine protease α-chymotrypsin (Succ-Ala-Ala-Pro-Phe-AMC hydrolysis). It is filed as biochemical. The conditions noted are these: pH 7.5, 0.03 mM substrate. How it is done: Additionally,because α-chymotrypsin is not a calcium sensitive enzyme and is constituitively active, following addition of inhibitor stocks to the 96 well plates, 100 ul of a 2 fold concentrated stock of enzyme in dilution buffer was first added and the reaction started by addition of 100 ul of a 2 fold concentrated stock of substrate in assay buffer. Substrate hydrolysis was monitored every 5 minutes up to 30 minutes using a Fluoroskan II ([…]).

Turning to `CC(C)C[C@H](NC(=O)[C@H](CC(C)C)NC(=O)OCc1ccccc1)C(=O)COn1nnc2ccccc21` [Example 4, 1-[N-[N-Benzyloxycarbonyl-L-leucyl]-3S-5-methyl-3-amino-2-oxohexyloxy]benzotriazole], the kinact/KI is 175000 M⁻¹ s⁻¹ in experiment [1] and 19000 M⁻¹ s⁻¹ in experiment [3]. The inhibition at 10 µM in experiment [2] worked out at 57%.

`CC(C)C[C@H](NC(=O)OCc1ccccc1)C(=O)N[C@@H](Cc1ccccc1)C(=O)COn1cnc2ccccc21` [Example 22, 1-[N-[N-Benzyloxycarbonyl-L-leucyl]-(3S)-4-phenyl-3-amino-2-oxybutyloxy]benzimidazole]: in experiment [1], the kinact/KI was 4000 M⁻¹ s⁻¹. For the same molecule, the inhibition at 10 µM in experiment [4] was found to be 91%; in experiment [2] it was 61%.

Consider `CC(C)C[C@H](NC(=O)OCc1ccccc1)C(=O)N[C@@H](Cc1ccccc1)C(=O)COn1nnc2c(F)c(F)ccc21` [Example 25, 1-[N-[N-Benzyloxycarbonyl-L-leucyl]-3S-4-phenyl-3-amino-2-oxybutyloxy]-4',5'-difluorobenzotriazole], for which the figures for the kinact/KI in experiment [1] and in experiment [3] were 67000 M⁻¹ s⁻¹ and 300000 M⁻¹ s⁻¹, respectively. The inhibition at 10 µM in experiment [2] turned out to be 52%.

Broadly, the inhibition is the share of the control response that was lost under treatment.
